Tests used:
Format in all cases: cell-based
Proteus vulgaris = test: MIC against Gram-negative bacteria: Proteus vulgaris
Summary of the method: (§1)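 MIC, the lowest recombinant protein concentration giving no bacterial growth, found by two-fold serial dilution of human EGF-domain proteins in triplicate. Inoculum 5×10^5 CFU/mL in LB from cultures at McFarland 0.5; plates incubated at 37° C, 175 rpm shaking.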

Serratia marcescens = test: MIC against Gram-negative bacteria: Serratia marcescens
Summary of the method: as §1

Proteus mirabilis = test: MIC against Gram-negative bacteria: Proteus mirabilis
Summary of the method: as §1

Klebsiella pneumonia = test: MIC against Gram-negative bacteria: Klebsiella pneumonia
Summary of the method: as §1

Moraxella catarrhalis = test: MIC against Gram-negative bacteria: Moraxella catarrhalis
Summary of the method: as §1

E. coli BL21 = test: MIC against Gram-negative bacteria: E. coli BL21
Summary of the method: as §1

Aeromonas hydrophila = test: MIC against Gram-negative bacteria: Aeromonas hydrophila
Summary of the method: as §1

Citrobacter diversus = test: MIC against Gram-negative bacteria: Citrobacter diversus
Summary of the method: as §1

Enterobacter cloacae = test: MIC against Gram-negative bacteria: Enterobacter cloacae
Summary of the method: as §1

Pseudomonas aeruginosa = test: MIC against Gram-negative bacteria: Pseudomonas aeruginosa
Summary of the method: as §1

E. coli DH5α = test: Antibacterial activity: MIC and growth curve against E. coli DH5α in 96-well plate; conditions: minimal inhibitory concentration against E. coli DH5α; 96-well plate, 5×10^5 CFU/mL, 37° C., judged after 8 h
Summary of the method: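 Log-phase DH5α (OD600 about 0.5, 37° C, 185 rpm in LB) was pelleted, resuspended in fresh LB and seeded at 5×10^5 CFU/mL with recombinant protein at 50, 25 and 12.5 μg/mL (two-fold series), in triplicate. Plates were shaken at 175 rpm, 37° C, and OD600 was read every 30 min. MIC was the lowest concentration with no growth.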

[1] = P. vulgaris, 10 h cultivation at 37° C., 5×10^5 CFU/mL
[2] = S. marcescens, 10 h cultivation at 37° C., 5×10^5 CFU/mL
[3] = P. mirabilis, 10 h cultivation at 37° C., 5×10^5 CFU/mL
[4] = K. pneumonia, 10 h cultivation at 37° C., 5×10^5 CFU/mL
[5] = M. catarrhalis, 10 h cultivation at 37° C., 5×10^5 CFU/mL
[6] = E. coli BL21, 10 h cultivation at 37° C., 5×10^5 CFU/mL
[7] = A. hydrophila, 10 h cultivation at 37° C., 5×10^5 CFU/mL
[8] = C. diversus, 10 h cultivation at 37° C., 5×10^5 CFU/mL
[9] = E. cloacae, 10 h cultivation at 37° C., 5×10^5 CFU/mL
[10] = P. aeruginosa, 10 h cultivation at 37° C., 5×10^5 CFU/mL
[11] = 96-well plate, 5×10^5 CFU/mL, 37° C., 10 h

PRT179 (RVDRCSLQPCRNGGLCLDLGHALRCRCRAGFAGPRCE; listed as Homo sapiens)
MIC (μg/mL) P. vulgaris (Proteus vulgaris; [1]): 12.5 µg/mL | MIC (μg/mL) S. marcescens (Serratia marcescens; [2]): 12.5 µg/mL | MIC (μg/mL) P. mirabilis (Proteus mirabilis; [3]): 25 µg/mL | MIC (μg/mL) K. pneumonia (Klebsiella pneumonia; [4]): 25 µg/mL | MIC (μg/mL) M. catarrhalis (Moraxella catarrhalis; [5]): 12.5 µg/mL | MIC (μg/mL) E. coli BL21 (E. coli BL21; [6]): 25 µg/mL | MIC (μg/mL) A. hydrophila (Aeromonas hydrophila; [7]): 12.5 µg/mL | MIC (μg/mL) C. diversus (Citrobacter diversus; [8]): 25 µg/mL | MIC (μg/mL) E. cloacae (Enterobacter cloacae; [9]): 50 µg/mL | MIC (μg/mL) P. aeruginosa (Pseudomonas aeruginosa; [10]): 12.5 µg/mL | MIC (E. coli DH5α): 50 µg/mL

PRT519 (CQCNDNLDFSIPGSCDSLSGSCLICKPGTTGRYCELCADGYFGDAVDAKNCQP; listed as Homo sapiens)
MIC against P. vulgaris (Proteus vulgaris; [11]): 25 µg/mL | MIC against S. marcescens (Serratia marcescens; [11]): 12.5 µg/mL | MIC against P. mirabilis (Proteus mirabilis; [11]): 12.5 µg/mL | MIC against K. pneumonia (Klebsiella pneumonia; [11]): 25 µg/mL | MIC against M. catarrhalis (Moraxella catarrhalis; [11]): 25 µg/mL | MIC against E. coli BL21 (E. coli BL21; [11]): 12.5 µg/mL | MIC against A. hydrophila (Aeromonas hydrophila; [11]): 25 µg/mL | MIC against C. diversus (Citrobacter diversus; [11]): 12.5 µg/mL | MIC against E. cloacae (Enterobacter cloacae; [11]): 12.5 µg/mL | MIC against P. aeruginosa (Pseudomonas aeruginosa; [11]): 12.5 µg/mL | MIC (E. coli DH5α): 25 µg/mL

PRT913 (VINGCKGKPCKNGGTCAVASNTARGFICKCPAGFEGATCE; listed as Homo sapiens)
MIC (Proteus vulgaris; P. vulgaris, 10 h cultivation at 37° C.): 12.5 µg/mL | MIC (Serratia marcescens; S. marcescens, 10 h cultivation at 37° C.): 50 µg/mL | MIC (Proteus mirabilis; P. mirabilis, 10 h cultivation at 37° C.): 25 µg/mL | MIC (Klebsiella pneumonia; K. pneumonia, 10 h cultivation at 37° C.): 25 µg/mL | MIC (Moraxella catarrhalis; M. catarrhalis, 10 h cultivation at 37° C.): 50 µg/mL | MIC (E. coli BL21; E. coli BL21, 10 h cultivation at 37° C.): 25 µg/mL | MIC (Aeromonas hydrophila; A. hydrophila, 10 h cultivation at 37° C.): 25 µg/mL | MIC (Citrobacter diversus; C. diversus, 10 h cultivation at 37° C.): 25 µg/mL | MIC (Enterobacter cloacae; E. cloacae, 10 h cultivation at 37° C.): 12.5 µg/mL | MIC (Pseudomonas aeruginosa; P. aeruginosa, 10 h cultivation at 37° C.): 50 µg/mL | MIC (E. coli DH5α): 12.5 µg/mL

PRT162 (LIDFCALSPCAHGTCRSVGTSYKCLCDPGYHGLYCE; listed as Homo sapiens)
MIC (μg/mL) P. vulgaris (Proteus vulgaris; [1]): 12.5 µg/mL | MIC (μg/mL) S. marcescens (Serratia marcescens; [2]): 25 µg/mL | MIC (μg/mL) P. mirabilis (Proteus mirabilis; [3]): 100 µg/mL | MIC (μg/mL) K. pneumonia (Klebsiella pneumonia; [4]): 25 µg/mL | MIC (μg/mL) M. catarrhalis (Moraxella catarrhalis; [5]): 12.5 µg/mL | MIC (μg/mL) E. coli BL21 (E. coli BL21; [6]): 25 µg/mL | MIC (μg/mL) A. hydrophila (Aeromonas hydrophila; [7]): 25 µg/mL | MIC (μg/mL) C. diversus (Citrobacter diversus; [8]): 12.5 µg/mL | MIC (μg/mL) E. cloacae (Enterobacter cloacae; [9]): 12.5 µg/mL | MIC (μg/mL) P. aeruginosa (Pseudomonas aeruginosa; [10]): 12.5 µg/mL | MIC (E. coli DH5α): 12.5 µg/mL

PRT1345 (NINECSSSPCLNKGICVDGVAGYRCTCVKGFVGLHCE; listed as Homo sapiens)
MIC against P. vulgaris (Proteus vulgaris; Proteus vulgaris, 5×10^5 CFU/mL, 10 h cultivation at 37° C.): 25 µg/mL | MIC against S. marcescens (Serratia marcescens; Serratia marcescens, 5×10^5 CFU/mL, 10 h cultivation at 37° C.): 50 µg/mL | MIC against P. mirabilis (Proteus mirabilis; Proteus mirabilis, 5×10^5 CFU/mL, 10 h cultivation at 37° C.): 12.5 µg/mL | MIC against K. pneumonia (Klebsiella pneumonia; Klebsiella pneumonia, 5×10^5 CFU/mL, 10 h cultivation at 37° C.): 25 µg/mL | MIC against M. catarrhalis (Moraxella catarrhalis; Moraxella catarrhalis, 5×10^5 CFU/mL, 10 h cultivation at 37° C.): 25 µg/mL | MIC against E. coli BL21 (E. coli BL21; E. coli BL21, 5×10^5 CFU/mL, 10 h cultivation at 37° C.): 25 µg/mL | MIC against A. hydrophila (Aeromonas hydrophila; Aeromonas hydrophila, 5×10^5 CFU/mL, 10 h cultivation at 37° C.): 25 µg/mL | MIC against C. diversus (Citrobacter diversus; Citrobacter diversus, 5×10^5 CFU/mL, 10 h cultivation at 37° C.): 50 µg/mL | MIC against E. cloacae (Enterobacter cloacae; Enterobacter cloacae, 5×10^5 CFU/mL, 10 h cultivation at 37° C.): 12.5 µg/mL | MIC against P. aeruginosa (Pseudomonas aeruginosa; Pseudomonas aeruginosa, 5×10^5 CFU/mL, 10 h cultivation at 37° C.): 50 µg/mL | MIC (E. coli DH5α): 12.5 µg/mL

PRT613 (CQCSDNIDPNAVGNCNRLTGECLKCIYNTAGFYCDRCKDGFFGNPLAPNPADKCKA; listed as Homo sapiens)
MIC P. vulgaris (Proteus vulgaris; [11]): 12.5 µg/mL | MIC S. marcescens (Serratia marcescens; [11]): 50 µg/mL | MIC P. mirabilis (Proteus mirabilis; [11]): 25 µg/mL | MIC K. pneumonia (Klebsiella pneumonia; [11]): 50 µg/mL | MIC M. catarrhalis (Moraxella catarrhalis; [11]): 50 µg/mL | MIC E. coli BL21 (E. coli BL21; [11]): 12.5 µg/mL | MIC A. hydrophila (Aeromonas hydrophila; [11]): 12.5 µg/mL | MIC C. diversus (Citrobacter diversus; [11]): 25 µg/mL | MIC E. cloacae (Enterobacter cloacae; [11]): 25 µg/mL | MIC P. aeruginosa (Pseudomonas aeruginosa; [11]): 25 µg/mL | MIC (E. coli DH5α): 50 µg/mL
